The results in this text go back to patent US20110081362A1, “TREATMENT OF CANCER” (THE BRIGHAM AND WOMEN'S HOSPITAL, INC., priority 2008, published 2011).

Where a SMILES comes first, the peptide text is derived from it. The star is where a group is joined. Cbz = O=C(OCc1ccccc1)*

What all share (format): cell-based, human
In experiment [1] the test system is DLD-1 Ras Mut and Ras WT cells. The experiment can be described thus: Cell cycle and mitotic stage analysis (FACS, phospho-H3 Ser10, microscopy). The following applies: for G2/M arrest, Ras Mut vs Ras WT cells: DLD-1, synthetic lethal concentration of drug; for Prometaphase arrest of mitotic cells: DLD-1 Ras Mut vs Ras WT. The method, then: (§1) For cell cycle analysis, cells were ethanol fixed and stained with PI and analyzed using a BD LSR II FACS analyzer (BD Bioscience). Data analysis was carried out with BD FACS Diva and FlowJo softwares. Cell cycle synchronization by double thymidine block was based on a previous protocol (Steegmaier et al., 2007). Briefly, cells were arrested with two rounds of 20-hour thymidine (2.5 mM) treatment approximately 12 hours apart and released into mitosis. […] For one-step arrest in G2/M or in prometaphase, cells were treated overnight with either RO-3306 (10 μM) or the Eg5 kinesin inhibitor monastrol (100 μM), respectively. For mitotic entry experiments, cells were synchronized in RO-3306 (10 uM) overnight prior to release. For mitotic release experiments, cells were released from overnight synchronization in RO-3306 (10 uM) into nocodazole ([…]) for 4 hours and mitotic cells were collected by mitotic shake-off. Cells were then release by washing out the nocodazole. For the analysis of lagging chromosomes and mitotic index by microscopy, cells seeded onto coverslips were arrested in mitosis with 100 μM monastrol for 16 hours. Cells were washed and released into fresh media and were fixed at ten minute intervals for two hours in PHEM buffer+2% formaldehyde+0.5% triton-X100. Cells were immunostained with DAPI to visualized DNA and antibodies to phospho-histone H3 Ser10 (pH3S10) and to α-tubulin to identify mitotic cells at different stages. Independent triplicates with >100 cells per replicate were analyzed. For measuring mitotic index by FACS, cells were trypsinized, fixed with ethanol and stained with PI and pH3S10 antibody.

Experiment [2] relates to DLD-1 Ras Mut cells vs DLD-1 Ras WT cells. Nature of the experiment: Competition assay, GFP-labeled Ras Mut vs Ras WT cells, FACS. The following applies: for Viability/fitness of Ras Mut cells after transient treatment: DLD-1, 24 hours treatment, drug washed out, 3 additional days before FACS; for Fitness of Ras Mut cells relative to Ras WT cells (synthetic lethality with mutant Ras): DLD-1 isogenic pair, drug present for 4-5 days. Here is the method: E. Schematic of the competition assay used to validate shRNAs from the primary screen. Ras Mut cells expressing GFP and Ras WT cells were mixed and co-infected with the same retroviral shRNA. The Mut to WT cell ratio at the end of the experiment is measured by FACS. The percentage of Ras Mut cells in the mixture infected with a candidate RSL shRNA was normalized against that of a control shRNA targeting firefly luciferase (FF) within the same experiment to generate a normalized fitness score for the Ras Mut cells. Variations of this assay are also used to test the effect of siRNAs and chemical inhibitors.
Next, a competition assay was devised to test the reproducibility of candidate RSL shRNAs from the primary screen (Torrance et al., 2001; Smogorzewska et al., 2007). Individual shRNAs were packaged into retroviruses and infected into a 50:50 mixture of GFP+ DLD-1 Ras Mut cells and GFP (colorless) DLD-1 Ras WT cells. The relative ratio of Ras Mut versus WT cells at ˜7 days post shRNA infection was analyzed by FACS and compared to that of a mixed population infected with a negative control shRNA targeting luciferase (FIG. 8E). […] To rule out cell-line specific effect of candidate RSL shRNAs, candidates were tested using the competition assay in a second isogenic pair of colorectal cancer cell lines: HCT116 KRAS WT/G13D and HCT116 KRAS WT/−, which were derived with a similar method as the DLD-1 isogenic pair (Shirasawa et al., 1993; Torrance et al., 2001).
The competition assay used to test candidate genes from the screen was modified from a previous protocol (Torrance et al., 2001; Smogorzewska et al., 2007) and was carried out in 96-well plates in independent triplicates. For this assay, 1,000 each of GFP-labeled Ras Mut and unlabeled Ras WT cells were seeded in each well. For retroviral shRNA infection, cells were infected at an MOI of 1-5, selected for 3 days with puromycin and propagated for an additional 4-5 days before analyzed by FACS. An shRNA targeting firefly luciferase (shRNA-FF) was used as the negative control. For siRNA transfection, cells were transfected with siGenome siRNAs (Dharmacon) using Lipofectamine RNAiMAX (InVitrogen) and analyzed by FACS 5-6 days post transfection An siRNA targeting luciferase (Luc) was used as the negative control. […] Untreated wells were used as negative controls. To obtain normalized fitness of Ras Mut cells that can be compared across experiments, the percentage of Ras Mut cells in each sample was normalized to that in the control samples of that experiment.

Experiment [3] deals with HCT116 Ras Mut and Ras WT cells. Here is the method:
as §1, with “Cells were immunostained with DAPI to visualized DNA and antibodies to phospho-histone H3 Ser10 (pH3S10) and to α-tubulin to identify mitotic cells at different stages.” left out, “For measuring mitotic index by FACS, cells were trypsinized, fixed with ethanol and stained with PI and pH3S10 antibody.” left out

In experiment [4] the test system is HCT116 Ras Mut cells vs HCT116 Ras WT cells. Nature of the experiment: Competition assay, GFP-labeled Ras Mut vs Ras WT cells, FACS. Particulars: HCT116 isogenic pair; drug present for 4-5 days. The method, then:
Next, a competition assay was devised to test the reproducibility of candidate RSL shRNAs from the primary screen (Torrance et al., 2001; Smogorzewska et al., 2007). Individual shRNAs were packaged into retroviruses and infected into a 50:50 mixture of GFP+ DLD-1 Ras Mut cells and GFP (colorless) DLD-1 Ras WT cells. The relative ratio of Ras Mut versus WT cells at ˜7 days post shRNA infection was analyzed by FACS and compared to that of a mixed population infected with a negative control shRNA targeting luciferase (FIG. 8E). […] Without wishing to be bound by theory, a possible cause for the higher false positive rate in the primary screen might due to the fact that for the synthetic lethal analysis the difference between two microarray datasets is extracted and coupled with the fact that the secondary assay is much shorter than the original discovery assay. To rule out cell-line specific effect of candidate RSL shRNAs, candidates were tested using the competition assay in a second isogenic pair of colorectal cancer cell lines: HCT116 KRAS WT/G13D and HCT116 KRAS WT/−, which were derived with a similar method as the DLD-1 isogenic pair (Shirasawa et al., 1993; Torrance et al., 2001).
The competition assay used to test candidate genes from the screen was modified from a previous protocol (Torrance et al., 2001; Smogorzewska et al., 2007) and was carried out in 96-well plates in independent triplicates. For this assay, 1,000 each of GFP-labeled Ras Mut and unlabeled Ras WT cells were seeded in each well. For retroviral shRNA infection, cells were infected at an MOI of 1-5, selected for 3 days with puromycin and propagated for an additional 4-5 days before analyzed by FACS. An shRNA targeting firefly luciferase (shRNA-FF) was used as the negative control. For siRNA transfection, cells were transfected with siGenome siRNAs (Dharmacon) using Lipofectamine RNAiMAX (InVitrogen) and analyzed by FACS 5-6 days post transfection An siRNA targeting luciferase (Luc) was used as the negative control. For drug treatment, cells were treated with drugs for 4-5 days prior to FACS analysis. Untreated wells were used as negative controls. To obtain normalized fitness of Ras Mut cells that can be compared across experiments, the percentage of Ras Mut cells in each sample was normalized to that in the control samples of that experiment.

In experiment [5] the test system is HCT116 PI3K Mut cells vs PI3K WT cells. The experiment can be described thus: Competition assay, PI3K Mut vs PI3K WT cells. Particulars: HCT116 isogenic for the PI3K oncogene.
In experiment [6] the test system is DLD-1 PI3K Mut cells vs PI3K WT cells. Nature of the experiment: Competition assay, PI3K Mut vs PI3K WT cells. The following applies: DLD-1 isogenic for the PI3K oncogene.

With `CC(C)C[C@@H](C=O)NC(=O)[C@H](CC(C)C)NC(=O)[C@H](CC(C)C)NC(=O)OCc1ccccc1` [MG132] (Cbz-Leu-Leu-Leu-aldehyde), in experiment [1], the “G2/M arrest, Ras Mut vs Ras WT cells” value was “more sensitive” and the “Prometaphase arrest of mitotic cells” value is recorded as “more profound prometaphase block of the Ras Mut cells”. Also, in experiment [2], the “Viability/fitness of Ras Mut cells after transient treatment” value (“Viability/fitness of Ras Mut cells” for short) is “sufficient to selectively impair the viability of Ras Mut cells” and the “Fitness of Ras Mut cells relative to Ras WT cells (synthetic lethality with mutant Ras)” value was “selectively decreased the fitness of DLD-1 Ras Mut cells in a dose dependent fashion”. Also, in experiment [3], the “Cell cycle accumulation of Ras Mut cells by FACS” value is on record as “preferentially induce the accumulation of Ras Mut HCT116 cells”. For the same compound, the “Fitness of Ras Mut cells relative to Ras WT cells (synthetic lethality with mutant Ras)” value in experiment [4] was “selectively decrease the fitness of HCT116 Ras Mut cells”. Further, the “Fitness of PI3K Mut cells vs PI3K WT cells” value (shortened to “Fitness … vs PI3K WT cells”) in experiment [5] is given as “very little difference”. Moreover, the “Fitness … vs PI3K WT cells” value in experiment [6] is recorded as “more resistant to these inhibitors relative to DLD-1 PI3K WT cells”.
Take `N#CC(=C(/N)Sc1ccccc1N)/C(C#N)=C(\N)Sc1ccccc1N` [U0126]: in experiment [2], the “Fitness of Ras Mut cells relative to Ras WT cells (synthetic lethality with mutant Ras)” value was “At no concentration of these drugs was selective toxicity towards Ras Mut cells compared to Ras WT cells observed”.
For `CC(C)C[C@H](NC(=O)[C@H](Cc1ccccc1)NC(=O)c1cnccn1)B(O)O` [bortezomib], in experiment [1], the “G2/M arrest, Ras Mut vs Ras WT cells” value is on record as “more sensitive” and the “Prometaphase arrest of mitotic cells” value is “more profound prometaphase block of the Ras Mut cells”. In experiment [2], the “Viability/fitness of Ras Mut cells” value is recorded as “sufficient to selectively impair the viability of Ras Mut cells” and the “Fitness of Ras Mut cells relative to Ras WT cells (synthetic lethality with mutant Ras)” value is on record as “selectively decreased the fitness of DLD-1 Ras Mut cells in a dose dependent fashion”. Moreover, in experiment [3], the “Cell cycle accumulation of Ras Mut cells by FACS” value is recorded as “preferentially induce the accumulation of Ras Mut HCT116 cells”. The “Fitness of Ras Mut cells relative to Ras WT cells (synthetic lethality with mutant Ras)” value in experiment [4] was “selectively decrease the fitness of HCT116 Ras Mut cells”. The “Fitness … vs PI3K WT cells” value in experiment [5] is “very little difference”. Further, in experiment [6], the “Fitness … vs PI3K WT cells” value was “more resistant to these inhibitors relative to DLD-1 PI3K WT cells”.
On to `COC(=O)Nc1nc2ccc(C(=O)c3cccs3)cc2[nH]1` [nocodazole], for which the “Fitness of Ras Mut cells relative to Ras WT cells (synthetic lethality with mutant Ras)” value in experiment [2] and in experiment [4] was “no synthetic lethality with mutant Ras” in each case.
`CC(=O)O[C@H]1C(=O)[C@@]2(C)[C@H]([C@H](OC(=O)c3ccccc3)[C@]3(O)C[C@H](OC(=O)[C@H](O)[C@@H](NC(=O)c4ccccc4)c4ccccc4)C(C)=C1C3(C)C)[C@]1(OC(C)=O)CO[C@@H]1C[C@@H]2O` [paclitaxel]: in experiment [1], the “G2/M arrest, Ras Mut vs Ras WT cells” value is reported as “strong G2/M arrest in Ras Mut cells but not in Ras WT cells” and the “Prometaphase arrest of mitotic cells” value is “striking pro-metaphase block in the Ras mutant cells”. In experiment [2], the “Viability/fitness of Ras Mut cells” value is on record as “sufficient to selectively impair the viability of Ras Mut cells” and the “Fitness of Ras Mut cells relative to Ras WT cells (synthetic lethality with mutant Ras)” value is “increased sensitivity”. In addition, in experiment [4], the “Fitness of Ras Mut cells relative to Ras WT cells (synthetic lethality with mutant Ras)” value is reported as “increased sensitivity”. Besides, the “Fitness … vs PI3K WT cells” value in experiment [5] is “very little difference”. The “Fitness … vs PI3K WT cells” value in experiment [6] is “more resistant to these inhibitors relative to DLD-1 PI3K WT cells”.
